Literature values as cited in patent US20250311736A1, “SEED TREATMENT METHODS FOR INCREASING YIELD IN CROP PLANTS” (BAYER AKTIENGESELLSCHAFT, priority 2021, published 2025).

System: plants
Details: Tavares et al., 2011; Suwitchayanon et al., 2019

SMILES: O=C(/C=C/C=C/c1ccc2c(c1)OCO2)N1CCCCC1 [piperine]
- phytotoxic effect on plants (inhibits their growth): phytotoxic effect
